Reference: patent US8748426B2, “Inhibitors of diacylglycerol acyl transferase” (Piramal Enterprises Limited, priority 2009, dated 2014)

target: T1, hDGAT1 (Homo sapiens, UniProt O75907); assay: In-vitro DGAT1 assay (14C oleoyl CoA, hDGAT1 microsomes from Sf9 cells); details: at 1 μM
T1 sequence (O75907 1-488): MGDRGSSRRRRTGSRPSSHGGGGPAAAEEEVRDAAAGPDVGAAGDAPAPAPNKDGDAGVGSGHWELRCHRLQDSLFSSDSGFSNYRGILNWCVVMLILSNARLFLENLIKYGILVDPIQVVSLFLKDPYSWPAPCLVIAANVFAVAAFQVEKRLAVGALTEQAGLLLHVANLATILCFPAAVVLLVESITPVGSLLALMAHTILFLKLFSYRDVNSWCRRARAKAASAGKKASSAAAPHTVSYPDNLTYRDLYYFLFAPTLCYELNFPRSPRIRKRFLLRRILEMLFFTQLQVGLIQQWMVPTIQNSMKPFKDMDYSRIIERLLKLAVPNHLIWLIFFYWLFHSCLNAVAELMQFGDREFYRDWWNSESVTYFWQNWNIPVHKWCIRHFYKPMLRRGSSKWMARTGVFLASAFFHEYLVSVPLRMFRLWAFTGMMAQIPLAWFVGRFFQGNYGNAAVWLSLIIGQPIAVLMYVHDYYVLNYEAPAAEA
Description: Sf9 cells were seeded in spinner flasks on day 0 at a cell density of 1×10^6 and infected on day 1 with hDGAT1 baculovirus at a multiplicity of infection (MOI) of 5 and a cell density of 2×10^6. On day 3 (or 66-72 h), cells were harvested and centrifuged at 2500×g for 10 min. Pellet was resuspended in lysis buffer (100 mM sucrose, 50 mM KCl, 40 mM KH2PO4, 30 mM EDTA, pH 7.2) and passed through 21-gauge needle approximately 10 times. […] The supernatant was subjected to centrifugation at 35,000 rpm in a Beckman Ti-45 rotor at 4° C. for 1 h. The resultant pellet containing the microsomes wasere resuspended overnight in 1 mL of lysis buffer and total protein concentration was estimated using Bradford Reagent. Microsomes were aliquoted and stored at −80° C.
Frozen aliquots of hDGAT1 containing microsomes were thawed (5-10 mg/mL total protein) on ice and diluted to a working stock of 1 mg/mL with DGAT Assay Buffer (DAB).
The assay was performed in duplicates in a reaction volume of 100 μL. […] Procedure:
The reaction was started by the addition of 2.5 μL of 1 mg/mL of microsomes (iv) to the mixture and incubated at 37° C. for 10 min. […] The mixture was vortexed and the triglycerides formed were extracted into the organic heptane phase.

| SMILES | % Inhibition of hDGAT1 |
| --- | --- |
| O=C(Nc1ccc(-c2ccc3c(c2)C(=O)N([C@H]2CC[C@H](C(=O)O)CC2)C3)cc1)c1ccc(C(F)(F)F)cc1 [Example 563, (1r,4r)-4-(1-Oxo-6-(4-(4-(trifluoromethyl)benzamido)phenyl)isoindolin-2-yl)cyclohexanecarboxylic acid] | + (10-50% Inhibition) |
| COC[C@@H](C(=O)O)N1Cc2ccc(-c3ccc(NC(=O)Nc4cccc(C(F)(F)F)c4)cc3)cc2C1=O [Example 355] | + (10-50% Inhibition) |
| CC(C)[C@@H](C(=O)O)N1Cc2ccc(-c3ccc(NC(=S)Nc4ccccc4C(F)(F)F)cc3)cc2C1=O [Example 66] | ++ (>50% Inhibition) |
| CC(C)[C@@H](C(=O)O)N1Cc2ccc(-c3cnc(NC(=O)c4ccc(-c5ccccc5)cc4)cn3)cc2C1=O [Example 507, (S)-2-(6-(5-Biphenyl-4-ylcarboxamidopyrazin-2-yl)-1-oxoisoindolin-2-yl)-3-methylbutanoic acid] | ++ (>50% Inhibition) |
| O=C(Nc1ccc(-c2ccc3c(c2)C(=O)N([C@H]2CC[C@H](C(=O)O)CC2)C3)cc1)c1ccc(Cl)cc1 [Example 561, (1r,4r)-4-(6-(4-(4-Chlorobenzamido)phenyl)-1-oxoisoindolin-2-yl)cyclohexane carboxylic acid] | + (10-50% Inhibition) |

same assay, conditions: read-out: % Inhibition of hDGAT1

| SMILES | inhibition at 1 µM [%] |
| --- | --- |
| CC(C)[C@@H](C(=O)O)N1Cc2ccc(-c3ccc(NC(=O)c4cccc5ccccc45)cc3)cc2C1=O [Example 178, (S)-2-(6-(4-(1-Naphthamido)phenyl)-1-oxoisoindolin-2-yl)-3-methylbutanoic acid] | 10 to 50 |
| CC(C)[C@@H](C(=O)O)N1Cc2ccc(-c3ccc(NC(=O)c4ccc(-c5cncnc5)cc4)cc3)cc2C1=O [Example 653, (S)-3-Methyl-2-(1-oxo-6-(4-(4-(pyrimidin-5-yl)benzamido)phenyl)isoindolin-2-yl)butanoic acid] | 10 to 50 |
| CCCCCc1ccc(C(=O)Nc2ccc(-c3ccc4c(c3)C(=O)N([C@H](C(=O)O)C(C)C)C4)cc2F)cc1 [Example 446, (S)-2-(6-(3-Fluoro-4-(4-pentylbenzamido)phenyl)-1-oxoisoindolin-2-yl)-3-methylbutanoic acid] | > 50 |
| CCCCOc1ccc(C(=O)Nc2ccc(-c3ccc4c(c3)C(=O)N([C@H](C(=O)O)C(C)C)C4)c(C(F)(F)F)c2)cc1 [Example 432, (S)-2-(6-(4-(4-Butoxybenzamido)-2-(trifluoromethyl)phenyl)-1-oxoisoindolin-2-yl)-3-methylbutanoic acid] | 10 to 50 |
| CC(C)[C@@H](C(=O)O)N1Cc2ccc(-c3ccc(NC(=O)c4ccc5ccccc5c4)cc3)cc2C1=O [Example 122, (S)-2-(6-(4-(2-Naphthamido)phenyl)-1-oxoisoindolin-2-yl)-3-methylbutanoic acid] | > 50 |
| CC(C)(C(=O)O)N1Cc2ccc(-c3ccc(NC(=O)c4ccc(OC(F)(F)F)cc4)cc3)cc2C1=O [Example 523, 2-Methyl-2-(1-oxo-6-(4-(4-(trifluoromethoxy)benzamido)phenyl)isoindolin-2-yl)propanoic acid] | 10 to 50 |
| CC(C)[C@@H](C(=O)O)N1Cc2cc(-c3ccc(NS(=O)(=O)c4ccc(F)c(F)c4)cc3)ccc2C1=O [Example 289, (S)-2-(5-(4-(3,4-Difluorophenylsulfonamido)phenyl)-1-oxoisoindolin-2-yl)-3-methylbutanoic acid] | 10 to 50 |
| Cc1cccc(NC(=O)Nc2ccc(-c3ccc4c(c3)CN([C@H](C(=O)O)C(C)C)C4=O)cc2)c1 [Example 243, (S)-3-Methyl-2-(1-oxo-5-(4-(3-m-tolylureido)phenyl)isoindolin-2-yl)butanoic acid] | > 50 |
| O=C(Nc1ccc(-c2ccc3c(c2)C(=O)N(C2CCCC(C(=O)O)C2)C3)cc1)c1ccc(Cl)cc1 (stereo not drawn) [Example 549, 3-(6-(4-(4-Chlorobenzamido)phenyl)-1-oxoisoindolin-2-yl)cyclohexane carboxylic acid] | > 50 |
| CC(C)[C@@H](C(=O)O)N1Cc2cc(-c3ccc(NC(=O)c4ccc(C(F)(F)F)cc4)cc3)ccc2C1=O [Example 309, (S)-3-Methyl-2-(1-oxo-5-(4-(4-(trifluoromethyl)benzamido)phenyl)isoindolin-2-yl)butanoic acid] | 10 to 50 |
| Cc1ccc(NC(=S)Nc2ccc(-c3ccc4c(c3)CN([C@H](C(=O)O)C(C)C)C4=O)cc2)cc1 [Example 275, (S)-3-Methyl-2-(1-oxo-5-(4-(3-p-tolylthioureido)phenyl)isoindolin-2-yl)butanoic acid] | 10 to 50 |
| CC(C)[C@@H](C(=O)O)N1Cc2ccc(-c3ccc(NC(=S)Nc4cccc(Cl)c4)cc3)cc2C1=O [Example 64, (S)-2-(6-(4-(3-(3-Chlorophenyl)thioureido)phenyl)-1-oxoisoindolin-2-yl)-3-methyl butanoic acid] | 10 to 50 |
| CC(C)[C@@H](C(=O)O)N1Cc2ccc(-c3ccc(NC(=O)c4ncc(-c5ccccc5)o4)cc3)cc2C1=O [Example 614, (S)-3-Methyl-2-(1-oxo-6-(4-(5-phenyloxazole-2-carboxamido)phenyl)isoindolin-2-yl)butanoic acid] | > 50 |
| CC(C)[C@@H](C(=O)O)N1Cc2cc(-c3ccc(NC(=O)Nc4ccc(C#N)cc4)cc3)ccc2C1=O [Example 253, (S)-2-(5-(4-(3-(4-Cyanophenyl)ureido)phenyl)-1-oxoisoindolin-2-yl)-3-methylbutanoic acid] | > 50 |
| CCCCOc1ccc(C(=O)Nc2ccc(-c3ccc4c(c3)C(=O)N([C@H](C(=O)O)C(C)C)C4)cc2)cc1 [Example 136, (S)-2-(6-(4-(4-Butoxybenzamido)phenyl)-1-oxoisoindolin-2-yl)-3-methyl butanoic acid] | > 50 |
| Cc1cc(NC(=O)c2ccc(C(C)(C)C)cc2)ccc1-c1ccc2c(c1)C(=O)N([C@H](C(=O)O)C(C)C)C2 [Example 468, (S)-2-(6-(4-(4-tert-Butylbenzamido)-2-methylphenyl)-1-oxoisoindolin-2-yl)-3-methylbutanoic acid] | > 50 |
| CC(C)(C(=O)O)N1Cc2ccc(-c3ccc(NC(=O)Nc4cccc(C(F)(F)F)c4)cc3)cc2C1=O [Example 340, 2-Methyl-2-(1-oxo-6-(4-(3-(3-(trifluoromethyl)phenyl)ureido)phenyl)isoindolin-2-yl)propanoic acid] | 10 to 50 |
| O=C(Nc1ccc(-c2ccc3c(c2)C(=O)N(C2(C(=O)O)CC2)C3)cc1)c1ccc(Cl)cc1 [Example 588, 1-(6-(4-(4-Chlorobenzamido)phenyl)-1-oxoisoindolin-2-yl)cyclopropane carboxylic acid] | > 50 |
| COc1ccc(OC)c(C(=O)Nc2ccc(-c3ccc4c(c3)C(=O)N([C@H](C(=O)O)C(C)C)C4)cc2)c1 [Example 180, (S)-2-(6-(4-(3,6-Dimethoxybenzamido)phenyl)-1-oxoisoindolin-2-yl)-3-methyl butanoic acid] | > 50 |
| CC(C)[C@@H](C(=O)O)N1Cc2cc(-c3ccc(NC(=O)Nc4ccc(F)cc4F)cc3)ccc2C1=O [Example 237, (S)-2-(5-(4-(3-(2,4-Difluorophenyl)ureido)phenyl)-1-oxoisoindolin-2-yl)-3-methylbutanoic acid] | > 50 |
| CC(C)[C@@H](C(=O)O)N1Cc2ccc(-c3ccc(NC(=O)Nc4cc(F)cc(F)c4)cc3)cc2C1=O [Example 30, (S)-2-(6-(4-(3-(3,5-Difluorophenyl)ureido)phenyl)-1-oxoisoindolin-2-yl)-3-methylbutanoic acid] | 10 to 50 |
| CC(C)[C@@H](C(=O)O)N1Cc2ccc(-c3ccc(NC(=O)c4cccnc4Cl)cc3)cc2C1=O [Example 209, (S)-2-(6-(4-(2-Chloronicotinamido)phenyl)-1-oxoisoindolin-2-yl)-3-methyl butanoic acid] | > 50 |
| CC(C)[C@@H](C(=O)O)N1Cc2ccc(-c3ccc(NC(=O)Nc4ccccc4)cc3)cc2C1=O [Example 16, (S)-3-Methyl-2-(1-oxo-6-(4-(3-phenylureido)phenyl)isoindolin-2-yl)butanoic acid] | 10 to 50 |
| CC(C)[C@@H](C(=O)O)N1Cc2ccc(-c3ccc(NC(=O)Nc4ccc(F)c(F)c4)cc3)cc2C1=O [Example 32, (S)-2-(6-(4-(3-(3,4-Difluorophenyl)ureido)phenyl)-1-oxoisoindolin-2-yl)-3-methylbutanoic acid] | 10 to 50 |
| CC(C)[C@@H](C(=O)O)N1Cc2ccc(-c3ccc(NS(=O)(=O)c4ccc(F)cc4F)cc3)cc2C1=O [Example 84, (S)-2-(6-(4-(2,4-Difluorophenylsulfonamido)phenyl)-1-oxoisoindolin-2-yl)-3-methylbutanoic acid] | 10 to 50 |
| COc1cccc(NC(=O)Nc2ccc(-c3ccc4c(c3)CN([C@H](C(=O)O)C(C)C)C4=O)cc2)c1 [Example 251, (S)-2-(5-(4-(3-(3-Methoxyphenyl)ureido)phenyl)-1-oxoisoindolin-2-yl)-3-methylbutanoic acid] | > 50 |
| CC(C)[C@@H](C(=O)O)N1Cc2cc(-c3ccc(NC(=O)Nc4ccccc4)cc3)ccc2C1=O [Example 231, (S)-3-Methyl-2-(1-oxo-5-(4-(3-phenylureido)phenyl)isoindolin-2-yl)butanoic acid] | 10 to 50 |
| CC(C)[C@@H](C(=O)O)N1Cc2ccc(-c3ccc(NC(=O)c4ccc(F)cc4C(F)(F)F)cc3)cc2C1=O [Example 198, (S)-2-(6-(4-(4-Fluoro-2-(trifluoromethyl)benzamido)phenyl)-1-oxoisoindolin-2-yl)-3-methylbutanoic acid] | 10 to 50 |
